Legend:
Assay type in all cases: in vivo
[1] = system: Rhipicephalus (Boophilus) microplus larvae (strain Parkhurst, resistant against synthetic pyrethroids); assay: Rhipicephalus (Boophilus) microplus in-vitro contact test, larval cattle tick; settings: application rate 5 μg/cm^2 (=500 g/ha); after 48 hours
Protocol: Rhipicephalus (Boophilus) microplus—In-Vitro Contact Tests Larval Cattle Tick (Strain Parkhurst, Resistant Against Synthetic Pyrethroids)
(§1) 9 mg compound is solved in 1 mL acetone and diluted with acetone to the desired concentration. 250 μL of the test solution is filled in 25 mL glass test tubes and homogeneously distributed on the inner walls by rotation and tilting on a shaking device (2 h at 30 rpm). With a compound concentration of 900 ppm, an inner surface of 44.7 cm^2 and a homogeneous distribution, a dose of 5 pg/cm^2 is achieved.
After the solvent has evaporated, each test tube is filled with 20-50 cattle tick larvae (Rhipicephalus microplus), closed with a perforated lid and incubated in a horizontal position at 85% relative humidity and 27° C. in an incubator. After 48 hours efficacy is determined. The larvae are patted on the ground of the tubes and negative geotactic behavior is recorded.
An efficacy of 100% means all larvae are dead or moribund; 0% means no larvae are dead or moribund.

[2] = system: Rhipicephalus sanguineus (adult brown dog ticks); assay: Rhipicephalus sanguineus in-vitro contact test, adult brown dog ticks; settings: after 48 hours
Protocol: Rhipicephalus sanguineus—In-Vitro Contact Tests with Adult Brown Dog Ticks
as §1, with “μg/cm^2” for “pg/cm^2”
(§2) After the solvent has evaporated, each test tube is filled with 5-10 adult brown dog ticks (Rhipicephalus sanguineus), closed with a perforated lid and incubated in a lying position at room temperature and relative humidity. After 48 hours efficacy is determined. The ticks are patted on the ground of the tubes and are incubated on a heating plate at 45-50° C. for at most 5 minutes. Immotile or uncoordinated moving ticks, which are not able to escape the heat by climbing upwards, are marked as dead or moribund.
An efficacy of 100% means all ticks are dead or moribund; 0% means no ticks are dead or moribund.

[3] = system: Diabrotica balteata (banded cucumber beetle larvae); assay: Diabrotica balteata spray test; settings: 168 h, wheat seeds, after 7 days, read-out: efficacy (seedlings grown up like untreated, uninfected control); for pest or weed control at 32 µg/disc, 100 g/ha: application rate 100 g/ha (=32 μg/well); for pest or weed control at 160 µg/disc, 500 g/ha: application rate 500 g/ha (=160 μg/well)
Protocol: Diabrotica balteata—Spray Test
(§3) Solvent: 78.0 parts by weight of acetone • • 1.5 parts by weight of dimethylformamide
(§4) Emulsifier: alkylarylpolyglycol ether
(§5) To produce a suitable preparation of active compound, 1 part by weight of active compound is mixed with the stated amount of solvent, and the concentrate is diluted with water, containing an emulsifier concentration of 1000 ppm, to the desired concentration. Further test concentrations are prepared by dilution with emulsifier containing water.
Soaked wheat seeds (Triticum aestivum) are placed in a multiple well plate filled with agar and some water and are incubated for 1 day to germinate (5 seeds per well). The germinated wheat seeds are sprayed with a test solution containing the desired concentration of the active ingredient. Afterwards each unit is infected with 10-20 larvae of the banded cucumber beetle (Diabrotica balteata).
After 7 days efficacy in % is determined. 100% means all the seedlings have grown up like in the untreated, uninfected control; 0% means none of the seedlings have grown.

[4] = system: Myzus persicae (green peach aphid); assay: Myzus persicae oral test; settings: 120 h, application rate 20 ppm, after 5 days
Protocol: Solvent: 100 parts by weight acetone
To produce a suitable preparation of active compound, 1 part by weight of active compound is mixed with the stated amount of solvent, and the concentrate is diluted with water to the desired concentration.
50 μL compound solution is filled in microtiter plates and 150 μL IPL41 insect medium (33%+15% sugar) is added to obtain a total volume of 200 μL per well. Afterwards the plates are sealed with parafilm through which a mixed population of the green peach aphid (Myzus persicae) can suck on the compound preparation.
After 5 days mortality in % is determined. 100% means all aphids have been killed and 0% means none of the aphids have been killed.

[5] = system: Nezara viridula (southern green stink bug larvae); assay: Nezara viridula spray test; settings: 96 h, application rate 500 g/ha, barley plants, after 4 days
Protocol: Nezara viridula—Spray Test
as §3, §4, §5
Barley plants (Hordeum vulgare) are sprayed with a test solution containing the desired concentration of the active ingredient and are infested with larvae of the southern green stink bug (Nezara viridula).
After 4 days mortality in % is determined. 100% means all the stink bugs have been killed; 0% means none of the stink bugs have been killed.

[6] = system: Nilaparvata lugens (brown planthopper); assay: Nilaparvata lugens spray test; settings: 96 h, application rate 500 g/ha, rice plants, after 4 days
Protocol: Nilaparvata lugens—Spray Test
as §3, §4
as §5, with “solvents” for “solvent,”, “and” for “and the concentrate”
Rice plants (Oryza sativa) are sprayed with a preparation of the active ingredient of the desired concentration and the plants are infested with the brown planthopper (Nilaparvata lugens).
After 4 days mortality in % is determined. 100% means all planthoppers have been killed and 0% means none of the planthoppers have been killed.

[7] = system: Spodoptera frugiperda (fall armyworm larvae); assay: Spodoptera frugiperda spray test; settings: in Zea mays, 168 h
Protocol: Spodoptera frugiperda—Spray Test
Solvent: 78.0 parts by weight acetone • 1.5 parts by weight dimethylformamide
as §4
as §5, with “solvents” for “solvent,”, “and” for “and the concentrate”
Maize (Zea mays) leaf sections are sprayed with a preparation of the active ingredient of the desired concentration. Once dry, the leaf sections are infested with fall armyworm larvae (Spodoptera frugiperda).
After 7 days mortality in % is determined. 100% means all caterpillars have been killed and 0% means none of the caterpillars have been killed.

[8] = system: Ctenocephalides felis (adult cat fleas); assay: Ctenocephalides felis in-vitro contact test, adult cat flea; settings: after 48 hours
Protocol: Ctenocephalides felis—In-Vitro Contact Tests Adult Cat Flea
as §1, with “μg/cm^2” for “pg/cm^2”
as §2, with “cat fleas (Ctenocephalides felis),” for “brown dog ticks (Rhipicephalus sanguineus),”, “fleas” for “ticks”, “fleas,” for “ticks,”
An efficacy of 100% means all fleas are dead or moribund; 0% means no fleas are dead or moribund.

[9] = application rate 5 μg/cm^2 (=500 g/ha)
[10] = application rate 1 μg/cm^2 (=100 g/ha)

Compound: CC(NC(=O)c1cc(Cl)cc(S(C)(=O)=O)c1)c1nccnc1-n1nccn1 (racemic) [Example I-1, (rac)-3-Chloro-5-(methylsulfonyl)-N-{1-[3-(2H-1,2,3-triazol-2-yl)pyrazin-2-yl]ethyl}benzamide]
- efficacy (larvae dead or moribund) [1]: 90%
- efficacy (ticks dead or moribund) [2, 9]: 100%
- pest or weed control at 32 µg/disc, 100 g/ha [3]: 100%
- pest or weed control at 160 µg/disc, 500 g/ha [3]: 100%
- mortality at 20 ppm [4]: 100%
- mortality at 500 g/ha [5]: 100%

Compound: Cc1ncn(-c2nccnc2C(C)NC(=O)c2cc(Br)cc(Br)c2)n1 (racemic) [Example I-2, 3,5-Dibromo-N-{(rac)-1-[3-(3-methyl-1H-1,2,4-triazol-1-yl)pyrazin-2-yl]ethyl}benzamide]
- pest or weed control at 32 µg/disc, 100 g/ha [3]: 100%

Compound: Cc1ncn(-c2nccnc2C(C)NC(=O)c2cc(C(F)(F)F)cc(C(F)(F)F)c2)n1 (racemic) [Example I-3, (rac)-N-{1-[3-(3-Methyl-1H-1,2,4-triazol-1-yl)pyrazin-2-yl]ethyl}-3,5-bis(trifluoromethyl)benzamide]
- mortality at 500 g/ha [6]: 90%
- mortality at 100 g/ha [7]: 100%

Compound: Cc1ncn(-c2nccnc2C(C)NC(=O)c2cc(Cl)cc(S(C)(=O)=O)c2)n1 (racemic) [Example I-4, (rac)-3-Chloro-5-(methanesulfonyl)-N-{1-[3-(3-methyl-1H-1,2,4-triazol-1-yl)pyrazin-2-yl]ethyl}benzamide]
- pest or weed control at 32 µg/disc, 100 g/ha [3]: 100%
- mortality at 500 g/ha [5]: 70%

Compound: CC(NC(=O)c1cc(C(F)(F)F)cc(C(F)(F)F)c1)c1nccnc1-n1cncn1 (racemic) [Example I-5, (rac)-N-(1-[3-(1H-1,2,4-Triazol-1-yl)pyrazin-2-yl]ethyl)-3,5-bis(trifluoromethyl)benzamide]
- pest or weed control at 32 µg/disc, 100 g/ha [3]: 100%
- mortality at 500 g/ha [6]: 100%
- mortality at 20 g/ha [7]: 83%

Compound: CC(NC(=O)c1cc(Cl)cc(S(C)(=O)=O)c1)c1nccnc1-n1cncn1 (racemic) [Example I-6, (rac)-3-Chloro-5-(methanesulfonyl)-N-{1-[3-(1H-1,2,4-triazol-1-yl)pyrazin-2-yl]ethyl}benzamide]
- pest or weed control at 32 µg/disc, 100 g/ha [3]: 100%
- mortality at 500 g/ha [5]: 90%
- mortality at 500 g/ha [6]: 100%

Compound: CC(NC(=O)c1cc(Br)cc(Br)c1)c1nccnc1-n1cncn1 (racemic) [Example I-7, (rac)-3,5-Dibromo-N-{1-[3-(1H-1,2,4-triazol-1-yl)pyrazin-2-yl]ethyl}benzamide]
- pest or weed control at 32 µg/disc, 100 g/ha [3]: 100%

Compound: Cc1ncn(-c2nccnc2C(C)NC(=O)c2cc(Cl)cc(OC(F)(F)F)c2)n1 (racemic) [Example I-9, (rac)-3-Chloro-N-{1-[3-(3-methyl-1H-1,2,4-triazol-1-yl)pyrazin-2-yl]ethyl}-5-(trifluoromethoxy)benzamide]
- pest or weed control at 32 µg/disc, 100 g/ha [3]: 100%
- mortality at 100 g/ha [7]: 100%

Compound: CC(NC(=O)c1cc(C(F)(F)F)cc(C(F)(F)F)c1)c1nccnc1-c1cn(C)nn1 (racemic) [Example I-10, (rac)-N-{1-[3-(1-Methyl-1H-1,2,3-triazol-4-yl)pyrazin-2-yl]ethyl}-3,5-bis(trifluoromethyl)benz amide]
- efficacy (larvae dead or moribund) [1]: 100%
- pest or weed control at 32 µg/disc, 100 g/ha [3]: 100%

Compound: CC(NC(=O)c1cc(Cl)cc(OC(F)(F)F)c1)c1nccnc1-c1cn(C)nn1 (racemic) [Example I-11, (rac)-3-Chloro-N-{1-[3-(1-methyl-1H-1,2,3-triazol-4-yl)pyrazin-2-yl]ethyl}-5-(trifluoromethoxy)benzamide]
- pest or weed control at 32 µg/disc, 100 g/ha [3]: 100%

Compound: CC(NC(=O)c1cc(C(F)(F)F)cc(C(F)(F)F)c1)c1nccnc1-c1cn(-c2ccn(C)n2)nn1 (racemic) [Example I-12, (rac)-N-1-{3-[1-(1-Methyl-1H-pyrazol-3-yl)-1H-1,2,3-triazol-4-yl]pyrazin-2-yl}ethyl]-3,5-bis(trifluoromethyl)benzamide]
- efficacy (larvae dead or moribund) [1]: 90%
- mortality at 100 g/ha [7]: 100%

Compound: CC(NC(=O)c1cc(Br)cc(Br)c1)c1nccnc1-c1cn(C)nn1 (racemic) [Example I-15, (rac)-3,5-Dibromo-N-{1-[3-(1-methyl-1H-1,2,3-triazol-4-yl)pyrazin-2-yl]ethyl}benzamide]
- pest or weed control at 32 µg/disc, 100 g/ha [3]: 100%

Compound: CCN(C)C(=O)c1ncn(-c2nccnc2C(C)NC(=O)c2cc(C(F)(F)F)cc(C(F)(F)F)c2)n1 (racemic) [Example I-21, (rac)-1-(3-{1-[3,5-Bis(trifluoromethyl)benzamido]ethyl}pyrazin-2-yl)-N-ethyl-N-methyl-1H-1,2,4-triazole-3-carboxamide]
- efficacy (larvae dead or moribund) [1]: 100%
- efficacy (fleas dead or moribund) [8, 10]: 80%
- efficacy (ticks dead or moribund) [2, 10]: 80%

Compound: CCN(C)C(=O)c1ncn(-c2nccnc2C(C)NC(=O)c2cc(Cl)cc(S(C)(=O)=O)c2)n1 (racemic) [Example I-25, (rac)-1-(3-{1-[3-Chloro-5-(methanesulfonyl)benzamido]ethyl}pyrazin-2-yl)-N-ethyl-N-methyl-1H-1,2,4-triazole-3-carboxamide]
- mortality at 100 g/ha [7]: 100%

Compound: CC(NC(=O)c1cc(C(F)(F)F)cc(C(F)(F)F)c1)c1nccnc1-n1cnc(C#N)n1 (racemic) [Example I-27, (rac)-N-{1-[3-(3-Cyano-1H-1,2,4-triazol-1-yl)pyrazin-2-yl]ethyl}-3,5-bis(trifluoromethyl)benzamide]
- efficacy (larvae dead or moribund) [1]: 100%

Compound: CCOC(=O)Cn1cc(-c2nccnc2C(C)NC(=O)c2cc(C(F)(F)F)cc(C(F)(F)F)c2)nn1 (racemic) [Example I-28, (rac)-Ethyl [4-(3-{1-[3,5-bis(trifluoromethyl)benzamido]ethyl}pyrazin-2-yl)-1H-1,2,3-triazol-1-yl]acetate]
- efficacy (larvae dead or moribund) [1]: 100%
- efficacy (fleas dead or moribund) [8, 9]: 100%
- pest or weed control at 160 µg/disc, 500 g/ha [3]: 100%

— US20230242513A1, “NOVEL HETEROARYL-SUBSTITUTED PYRAZINE DERIVATIVES AS PESTICIDES” (Bayer Animal Health GmbH, priority 2020, published 2023)
